Assay results from patent publication US10072017B2, “Compounds and methods for the treatment of cystic fibrosis” (Flatley Discovery Lab, LLC, priority 2015, dated 2018).

Biological target: T1, CFTR (Homo sapiens, UniProt P13569, DEL508-508)
T1 construct: Primary CF airway epithelial cells were obtained from the UNC Cystic Fibrosis Tissue Procurement and Cell Culture Core; host or cells: primary CF airway epithelial cells
Assay: Equivalent current assay in Primary CF airway epithelial cells (NAUC)
Assay type: cell-based
Settings: 24 h, normalized to VX809 (3 μM) positive control; for Nauc @ 3 μM: 3 μM test compound; for Nauc @ 10 μM: 10 μM test compound
Protocol: Primary CF airway epithelial cells were obtained from the UNC Cystic Fibrosis Tissue Procurement and Cell Culture Core. The cells are grown at 37° C. in a Heracell 150i incubator using growth media (BEGM, Fischer). Cells were then transferred to differentiation media (ALI, UNC) for a minimum of 4 weeks on coated Costar snapwells. Two days before the Ussing assay the mucus on the apical surface of the cells was aspirated after incubating with 200 μL of differentiation Media for at least thirty (30) minutes. One day before the Ussing assay test compounds were added to the basolateral surface of the cells at various test concentrations dissolved in DMSO. Duplicate wells were prepared giving a n=3 or n=4 protocol.
Cells were treated for 24 hours with various combinations and concentrations of the test articles, reference standard (3 μM VX809, positive control). Compounds stock solutions were prepared in DMSO and diluted 1/1000 into ALI media to their final assay concentration. Cells were treated with combination solutions (2 mL of each dilution) and incubated at 37° C. for 24 h.
For the equivalent current assay, cells on four Transwell (24-well) plates were treated. Each Transwell plate was filled with 200 μl of HBS on the apical surface and 2 ml on the basolateral surface. Plates were placed horizontally in a heated mount at 37° C., and equilibrated for several minutes. Resting current was measured for 15 min and then blocked by the apical addition of 5 μM benzamil. After 20 min, 10 μM forskolin and 1 μM VX770 were added to both the apical and basolateral side to stimulate CFTR. An increase in chloride current is seen as an upward deflection of the trace. After another 30 min, CFTR-172 (a CFTR inhibitor, 20 μM) and/or bumetanide (20 uM) was added to block CFTR mediated chloride current.
The raw data, current vs. time for the Ussing chamber (sampling interval: 10 s) and voltage vs. time and resistance vs. time for the equivalent current assay (sampling interval: 5 minutes) were transferred to Excel (Microsoft Office Professional, version 14.0.7106.5003) for analysis. CFTR specific current was measured as the average amplitude of the increase in current elicited upon addition forskolin and ending upon addition of the CFTR channel specific blocker CFTR-172. This average is equivalent to the sum of the average forskolin activated and the average VX770-potentiated currents. The average current measured in vehicle (0.1% DMSO) treated cells, Iv, was subtracted from the current for the test article, ITA, or from the corrector reference standard VX809 (3 uM ISTD. For replicate measurements, the average vehicle subtracted response for the test article, was normalized to the average vehicle subtracted inhibitor response of the reference corrector VX809 (3 μM). INSC=(ITA−IV)(ave)/(ISTD−IV)(ave) (Equation 1)
A second endpoint, for the equivalent current assay, evaluated was NAUC, the normalized area under the curve (AUC) measuring the response after addition of forskolin and VX770 to the time point right before the addition of the CFTR inhibitor. The AUC is effectively the average response multiplied by the duration of the response. The AUC of the test article, AUCTA was then corrected by subtracting the average vehicle response, AUCV,ave over the same time range, and normalized as for the inhibitor-sensitive current to the difference of the corrector reference standard VX809 (3 μM VX809r,ave and the vehicle response: NAUCTA=[AUCTA−AUCV,ave]/[AUCVx809r,ave−AUCV,ave] (Equation 2).
The normalized value for DMSO is 0.0 and for VX-809 alone is 1.0. Combinations of compounds with VX-809 that give normalized values greater than 1.0 show activity in the combination assay. A value of 2 means the test compound doubles the effect to VX-809 alone.
Experiments were run with a minimum of n=4 replicates per concentration. […]

T1 sequence (P13569 with tags, fused parts or gaps DEL508-508): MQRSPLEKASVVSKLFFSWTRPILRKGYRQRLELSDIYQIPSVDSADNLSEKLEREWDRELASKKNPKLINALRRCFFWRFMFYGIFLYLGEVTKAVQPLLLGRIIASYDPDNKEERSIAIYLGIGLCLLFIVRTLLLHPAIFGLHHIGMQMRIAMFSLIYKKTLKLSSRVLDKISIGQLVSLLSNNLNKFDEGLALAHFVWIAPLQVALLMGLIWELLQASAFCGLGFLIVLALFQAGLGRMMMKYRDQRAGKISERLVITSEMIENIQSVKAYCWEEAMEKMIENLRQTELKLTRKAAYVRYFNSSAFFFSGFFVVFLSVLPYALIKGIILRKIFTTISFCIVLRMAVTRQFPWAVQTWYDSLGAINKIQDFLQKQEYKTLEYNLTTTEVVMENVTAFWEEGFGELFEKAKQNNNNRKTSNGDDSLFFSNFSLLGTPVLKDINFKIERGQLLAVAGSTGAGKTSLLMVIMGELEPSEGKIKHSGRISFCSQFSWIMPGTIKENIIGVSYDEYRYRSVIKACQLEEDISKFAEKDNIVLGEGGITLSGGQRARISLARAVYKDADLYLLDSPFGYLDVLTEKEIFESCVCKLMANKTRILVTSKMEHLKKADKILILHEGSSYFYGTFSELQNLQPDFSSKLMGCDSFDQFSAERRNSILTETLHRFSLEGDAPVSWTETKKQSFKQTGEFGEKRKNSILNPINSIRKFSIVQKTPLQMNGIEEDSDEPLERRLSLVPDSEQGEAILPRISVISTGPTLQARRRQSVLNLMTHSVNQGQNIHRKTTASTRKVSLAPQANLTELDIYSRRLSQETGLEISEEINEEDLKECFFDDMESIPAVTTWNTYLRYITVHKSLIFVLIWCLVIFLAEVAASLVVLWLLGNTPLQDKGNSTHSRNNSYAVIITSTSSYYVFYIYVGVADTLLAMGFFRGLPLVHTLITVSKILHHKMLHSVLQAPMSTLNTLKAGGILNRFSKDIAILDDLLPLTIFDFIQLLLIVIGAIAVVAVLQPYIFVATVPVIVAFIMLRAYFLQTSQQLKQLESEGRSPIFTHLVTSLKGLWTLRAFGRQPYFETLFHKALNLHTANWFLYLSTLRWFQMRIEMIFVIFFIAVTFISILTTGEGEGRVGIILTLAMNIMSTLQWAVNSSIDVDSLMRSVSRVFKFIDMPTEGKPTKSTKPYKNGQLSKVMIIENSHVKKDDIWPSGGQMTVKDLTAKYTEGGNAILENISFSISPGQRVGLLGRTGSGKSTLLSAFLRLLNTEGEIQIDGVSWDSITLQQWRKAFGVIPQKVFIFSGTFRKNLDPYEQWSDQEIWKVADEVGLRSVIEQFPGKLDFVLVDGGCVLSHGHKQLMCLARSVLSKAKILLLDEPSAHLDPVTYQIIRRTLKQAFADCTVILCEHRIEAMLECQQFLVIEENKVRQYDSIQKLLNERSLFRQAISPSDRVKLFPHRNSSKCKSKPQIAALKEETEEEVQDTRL

Row | SMILES | Nauc @ 3 μM | Nauc @ 10 μM
1 | C[C@@]1(F)CC2C3C(=O)N(c4cc(Cl)cc(Cl)n4)C(=O)C3C3(C(=O)Nc4c(Cl)cc(Cl)cc43)N2C1 (stereo partly drawn) [Example 173] | +++ (NAUC “+++” refers to an observed NAUC >170% of positive control) | +++ (NAUC “+++” refers to an observed NAUC >170% of positive control)
2 | O=C1C2C3CC(C(F)F)CN3C3(C(=O)Nc4c(Cl)cc(Cl)cc43)C2C(=O)N1c1cccc(C(F)(F)F)c1 (stereo not drawn) [Example 134] | + (NAUC “+” refers to an observed NAUC <140% of positive control) | ++ (NAUC “++” refers to an observed NAUC 170-140% of positive control)
3 | O=C1C2C(Cc3ccccc3Cl)NC3(C(=O)Nc4c(Cl)cc(Cl)cc43)C2C(=O)N1c1cc(Cl)cc(Cl)c1 (stereo not drawn) [Example 246] | +++ (NAUC “+++” refers to an observed NAUC >170% of positive control) | +++ (NAUC “+++” refers to an observed NAUC >170% of positive control)
4 | C=C1CC2C3C(=O)N(c4cc(Cl)cc(Cl)c4)C(=O)C3C3(C(=O)Nc4c(Cl)cc(Cl)cc43)N2C1 (stereo not drawn) [Example 55] | + (NAUC “+” refers to an observed NAUC <140% of positive control) | +++ (NAUC “+++” refers to an observed NAUC >170% of positive control)
5 | N#Cc1cccc(N2C(=O)C3C4CCCN4C4(C(=O)Nc5c(Cl)cc(Cl)cc54)C3C2=O)c1 (stereo not drawn) [Example 14] | + (NAUC “+” refers to an observed NAUC <140% of positive control) | ++ (NAUC “++” refers to an observed NAUC 170-140% of positive control)
6 | O=C1C2C3CCCN3C3(C(=O)Nc4c(Cl)cc(F)cc43)C2C(=O)N1c1cc(F)cc(Cl)c1 (stereo not drawn) [Example 36] | + (NAUC “+” refers to an observed NAUC <140% of positive control) | +++ (NAUC “+++” refers to an observed NAUC >170% of positive control)
7 | O=C1C2C3C[C@H](O)CN3C3(C(=O)Nc4c(Br)cc(Br)cc43)C2C(=O)N1c1cc(Cl)cc(Cl)c1 (stereo partly drawn) [Example 40] | +++ (NAUC “+++” refers to an observed NAUC >170% of positive control) | +++ (NAUC “+++” refers to an observed NAUC >170% of positive control)
8 | CC1CC2C3C(=O)N(c4cc(Cl)cc(Cl)c4)C(=O)C3C3(C(=O)Nc4c(Cl)cc(Cl)cc43)N2C1 (single isomer, unassigned) [Example 72] | +++ (NAUC “+++” refers to an observed NAUC >170% of positive control) | + (NAUC “+” refers to an observed NAUC <140% of positive control)
9 | O=C1C2C3CCCN3C3(C(=O)Nc4c(Cl)cc(Cl)cc43)C2C(=O)N1c1cc(F)cc(F)c1 (stereo not drawn) [Example 21] | ++ (NAUC “++” refers to an observed NAUC 170-140% of positive control) | ++ (NAUC “++” refers to an observed NAUC 170-140% of positive control)
10 | O=C1C2C3CC4(CN3C3(C(=O)Nc5c(Cl)cc(Cl)cc53)C2C(=O)N1c1cc(Cl)cc(Cl)c1)OCCO4 (stereo not drawn) [Example 169] | + (NAUC “+” refers to an observed NAUC <140% of positive control) | ++ (NAUC “++” refers to an observed NAUC 170-140% of positive control)
11 | O=C1C2C(C(=O)N1c1cc(Cl)cc(Cl)c1)C1(NC23CCC3)C(=O)Nc2c(Cl)cc(Cl)cc21 (stereo not drawn) [Example 211] | ++ (NAUC “++” refers to an observed NAUC 170-140% of positive control) | ++ (NAUC “++” refers to an observed NAUC 170-140% of positive control)
12 | CC(=O)Oc1c(Cl)cc(Cl)cc1N1C(=O)C2C3CCCN3C3(C(=O)Nc4c(Cl)cc(Cl)cc43)C2C1=O (stereo not drawn) [Example 90] | + (NAUC “+” refers to an observed NAUC <140% of positive control) | +++ (NAUC “+++” refers to an observed NAUC >170% of positive control)
13 | O=C1C2C3CCCN3C3(C(=O)Nc4ccc(C(F)(F)F)cc43)C2C(=O)N1c1cc(Cl)cc(Cl)c1 (stereo not drawn) [Example 30] | ++ (NAUC “++” refers to an observed NAUC 170-140% of positive control) | +++ (NAUC “+++” refers to an observed NAUC >170% of positive control)
14 | O=C1C2C3C[C@H](Cl)CN3C3(C(=O)Nc4c(Cl)cc(Cl)cc43)C2C(=O)N1c1cc(Cl)cc(Cl)c1O (stereo partly drawn) [Example 96] | ++ (NAUC “++” refers to an observed NAUC 170-140% of positive control) | + (NAUC “+” refers to an observed NAUC <140% of positive control)
15 | O=C1C2C(Cc3ccccc3F)NC3(C(=O)Nc4c(Cl)cc(Cl)cc43)C2C(=O)N1c1cc(Cl)cc(Cl)c1 (stereo not drawn) [Example 181] | +++ (NAUC “+++” refers to an observed NAUC >170% of positive control) | +++ (NAUC “+++” refers to an observed NAUC >170% of positive control)
16 | O=C1C2C3C[C@H](Cl)CN3C3(C(=O)Nc4c(Cl)cc(Cl)cc43)C2C(=O)N1c1cc(Cl)c(O)c(Cl)c1 (stereo partly drawn) [Example 83] | ++ (NAUC “++” refers to an observed NAUC 170-140% of positive control) | +++ (NAUC “+++” refers to an observed NAUC >170% of positive control)
17 | CC12C(=O)N(c3cc(Cl)cc(Cl)c3)C(=O)C1(C)C1(C(=O)Nc3c(Cl)cc(Cl)cc31)N1CCCC12 (stereo not drawn) [Example 39] | + (NAUC “+” refers to an observed NAUC <140% of positive control) | ++ (NAUC “++” refers to an observed NAUC 170-140% of positive control)
18 | CC(C)(C)NC(=O)N[C@H]1CC2C3C(=O)N(c4cc(Cl)cc(Cl)c4)C(=O)C3C3(C(=O)Nc4c(Cl)cc(Cl)cc43)N2C1 (stereo partly drawn) [Example 153] | + (NAUC “+” refers to an observed NAUC <140% of positive control) | ++ (NAUC “++” refers to an observed NAUC 170-140% of positive control)
19 | CC(=O)N[C@H]1CC2C3C(=O)N(c4cc(Cl)cc(Cl)c4)C(=O)C3C3(C(=O)Nc4c(Cl)cc(Cl)cc43)N2C1 (stereo partly drawn) [Example 135] | +++ (NAUC “+++” refers to an observed NAUC >170% of positive control) | + (NAUC “+” refers to an observed NAUC <140% of positive control)
20 | COc1c(Cl)cc(N2C(=O)C3C4CC(F)(F)CN4C4(C(=O)Nc5c(Cl)cc(Cl)cc54)C3C2=O)cc1Cl (stereo not drawn) [Example 194] | +++ (NAUC “+++” refers to an observed NAUC >170% of positive control) | ++ (NAUC “++” refers to an observed NAUC 170-140% of positive control)
21 | CC12C(=O)N(c3cc(Cl)cc(Cl)c3)C(=O)C1C1(C(=O)Nc3c(Cl)cc(Cl)cc31)N1CCCC12 (single isomer, unassigned) [Example 54] | ++ (NAUC “++” refers to an observed NAUC 170-140% of positive control) | + (NAUC “+” refers to an observed NAUC <140% of positive control)
22 | O=C1C2C3CCCN3C3(C(=O)Nc4c(Cl)cc(Cl)cc43)C2C(=O)N1c1cccc2c1OC(F)(F)O2 (stereo not drawn) [Example 23] | ++ (NAUC “++” refers to an observed NAUC 170-140% of positive control) | + (NAUC “+” refers to an observed NAUC <140% of positive control)
23 | O=C1C2C3CCCN3C3(C(=O)Nc4c(Cl)cc(Cl)cc43)C2C(=O)N1c1cc(C(F)(F)F)cc(C(F)(F)F)c1 (stereo not drawn) [Example 26] | + (NAUC “+” refers to an observed NAUC <140% of positive control) | +++ (NAUC “+++” refers to an observed NAUC >170% of positive control)
24 | [2H]C12C(=O)N(c3cc(Cl)cc(Cl)c3)C(=O)C1([2H])C1(C(=O)Nc3c(Cl)cc(Cl)cc31)N1CC(C)(C)CC12 (stereo not drawn) [Example 147] | +++ (NAUC “+++” refers to an observed NAUC >170% of positive control) | +++ (NAUC “+++” refers to an observed NAUC >170% of positive control)
